Laboratory results published in patent US20210213104A1, “GLUCAGON AND GLP-1 CO-AGONISTS FOR THE TREATMENT OF CHRONIC KIDNEY DISEASE AND DIABETIC KIDNEY DISEASE IN TYPE 2 DIABETES” (MEDIMMUNE LIMITED, priority 2020, published 2021).

Columns and labels:
Assay type in all cases: in vivo, human
[1] = system: patients with T2DM and chronic kidney disease (CKD) stage G3; assay: Phase 2a: C-peptide levels; details: over 32 days; P<0.001
Method: Over 32 days, 21 patients received once-daily subcutaneous cotadutide (n=21) titrated up to 300 μg, and 20 patients received placebo (PBO). […] Serious adverse events (AEs) were balanced between treatment arms; treatment-related AEs were more frequent with cotadutide (71%) vs PBO (35%). The most common AEs were nausea (cotadutide, 33%; PBO, 20%) and vomiting (cotadutide, 24%; PBO, 5%). […] Thus, in patients with T2DM and chronic kidney disease, cotadutide improved overall glycemic control and glucose responses to an MMTT with acceptable tolerability. Improvements in albuminuria indicate that cotadutide can slow long-term progression of CKD.

[2] = system: subjects with T2DM and renal impairment; assay: Phase 2a: fasting glucose blood test; details: ITT; for Fasting Glucose LS Mean Change / Fasting Glucose Change from Baseline, Mean / Fasting Glucose Change from Baseline, Median / Fasting Glucose Difference in LS Mean Change (vs Placebo): Day 1 to Day 32; for Fasting Glucose LS Mean Change: ANCOVA
Method: Cotadutide was titrated from 50 μg up to 300 μg and administered once daily by subcutaneous (SC) injection over 32 days.
Cotadutide was administered at 50 μg once daily for 4 days, followed by 100 μg daily for 7 days, 200 μg daily for 7 days, and 300 μg daily for 14 days (n=20). Placebo was administered one daily for 32 days (n=20). Cotadutide and placebo were administered in the morning. Dosing commenced following predose baseline vital signs, blood tests (including HbA1c), an electrocardiogram (ECG), body weight measurement, and bioimpedance spectroscopy (BIS). Subjects then returned for daily dosing or remained overnight locally until Day 5, and thereafter, had visits at weekly intervals until a maintenance dose of 300 μg was established. Thus, Cotadutide or placebo was administered at the study site by study personal for the first four doses and on site on Days 5, 12, 19, and 32. At all other times, subjects preformed dosing at home.
Blood samples were collected to evaluate blood glucose (fasting) and HbA1c levels.
Fasting glucose was measured from baseline (Day 1) to the end of treatment (Day 32). […] LS mean reduction of fasting glucose from baseline was more apparent in subjects in the Insulin Dose <20 U/day subgroup compared to Insulin Dose ≥20 U/day subgroup.

[3] = system: subjects with T2DM and renal impairment; assay: Phase 2a: eGFR (CKD-EPI equation); details: Day 33 / after 32 days
Text: Inclusion criteria: • Male and female subjects, aged ≥18 years and <85 years at screening; • Body mass index (BMI) between 25 kg/m^2 and 40 kg/m^2 (inclusive) at screening; • HbA1c range of 6.5% to 10.5% (inclusive) at the time of screening; • Diagnosed with T2DM with glucose control managed with any insulin and/or oral therapy combination where no significant dose changes of oral therapy of more than 50% had occurred in the 3 months prior to screening (at least 50% of the subject N=20) enrolled were required to have been taking insulin at a total daily dose of ≥20 units); • Renal impairment with eGFR ≥30 and <60 mL/min/1.73 m^2 at screening. Approximately 16 subjects (40%) were required to have a screening eGFR ≥45 and <60 mL/min/1.73 m^2 (in order to ensure subjects at both ends of the moderate renal impairment spectrum were adequately represented). eGFR was determined by the chronic kidney disease-epidemiology collaboration (CKD-EPI) equation. (eGFR=141×min(SCr/κ, 1)^α×max (SCr/κ, 1)^[…]^Age×1.018 [if female]×1.159 [if Black]; wherein SCr (standardized serum creatinine)=mg/dL, κ=0.7 (females) or 0.9 (males), α=−0.329 (females) or −0.411 (males), min=indicates the minimum of SCr/κ or 1, max=indicates the maximum of SCr/κ or 1, and age=years)

[4] = system: subjects with T2DM and renal impairment; assay: Phase 2a: adverse events
Method: Only serious adverse events (SAEs) associated with protocol-related procedures were collected form time of signature of informed consent until the stat of the treatment period. All adverse events (AEs) were collected during the treatment period and follow-up period (Day 60±5). AEs and SAEs were graded by severity and relationship to Cotadutide or placebo, and SAEs were assessed for relationship to protocol procedures.

[5] = system: subjects with T2DM and renal impairment; assay: Phase 2a: bioimpedance spectroscopy (fluid status); details: baseline (Day 1) to end of dosing
Method: Assessment of body composition, including but not limited to extracellular and intracellular volume and total body water, were conducted with bioimpedance spectroscopy using the SFB7 device produced by ImpediMed. Bioimpedance spectroscopy measures were not conducted in any subject with a pacemaker or implantable electronic device, e.g., an implantable cardiac defibrillator, as described in the manufacturer's instructions.
Bioimpedance spectroscopy was performed prior to dosing on Visit 4 (Day 1; Baseline) and following dosing on Visits 6 (Day 5), 7 (Day 12), 8 (Day 19), and 9 (Day 32). Subjects were to void their bladder and abstain from exercising 2 hours prior to the assessment. The subjects laid in a supine position 5 minutes before the measurement, while not touching any metal surfaces. The subjects' limbs were not crossed, the legs were completely separated, and the arms were not to touch the torso. For subjects who could not effectively separate their inner thighs, insulating material (e.g., a towel) may have been between the legs. The bioimpedance spectroscopy was set to make three repeat measurements. The subject was to remain still and relaxed during the measurement. The points of contact for the electrodes were marked on the subject's skin and the same positions used at all occasions. […]

CCCCCCCCCCCCCCCC(=O)N[C@@H](CCC(=O)NCCCC[C@H](NC(=O)[C@H](CC(=O)O)NC(=O)[C@H](CO)NC(=O)[C@@H](NC(=O)[C@H](Cc1ccccc1)NC(=O)[C@@H](NC(=O)CNC(=O)[C@H](CCC(N)=O)NC(=O)[C@H](CO)NC(=O)[C@@H](N)Cc1c[nH]cn1)[C@@H](C)O)[C@@H](C)O)C(=O)N[C@@H](CO)C(=O)N[C@@H](CCC(=O)O)C(=O)N[C@@H](Cc1ccc(O)cc1)C(=O)N[C@@H](CC(C)C)C(=O)N[C@@H](CC(=O)O)C(=O)N[C@@H](CO)C(=O)N[C@@H](CCC(=O)O)C(=O)N[C@@H](CCCNC(=N)N)C(=O)N[C@@H](C)C(=O)N[C@@H](CCCNC(=N)N)C(=O)N[C@@H](CC(=O)O)C(=O)N[C@@H](Cc1ccccc1)C(=O)N[C@H](C(=O)N[C@@H](C)C(=O)N[C@@H](Cc1c[nH]c2ccccc12)C(=O)N[C@@H](CC(C)C)C(=O)N[C@@H](CCC(=O)O)C(=O)N[C@@H](C)C(=O)NCC(=O)NCC(=O)O)C(C)C)C(=O)O [Cotadutide]
C-peptide levels, LS mean change vs PBO [1]: 0.88 µg/L
Fasting Glucose LS Mean Change ([2]; Insulin Dose < 20 U/day): -32.24 mg/dL
Fasting Glucose LS Mean Change ([2]; Insulin Dose ≥ 20 U/day): -12.28 mg/dL
Fasting Glucose LS Mean Change ([2]; Total): -19.55 mg/dL
Fasting Glucose Change from Baseline, Mean ([2]; Insulin Dose < 20 U/day): -31.79 mg/dL
Fasting Glucose Change from Baseline, Median ([2]; Insulin Dose < 20 U/day): -39.64 mg/dL
Fasting Glucose Difference in LS Mean Change (vs Placebo) ([2]; Insulin Dose < 20 U/day): -28.11 mg/dL
Fasting Glucose Change from Baseline, Mean ([2]; Insulin Dose ≥ 20 U/day): -9.39 mg/dL
Fasting Glucose Change from Baseline, Median ([2]; Insulin Dose ≥ 20 U/day): -9.01 mg/dL
Fasting Glucose Difference in LS Mean Change (vs Placebo) ([2]; Insulin Dose ≥ 20 U/day): -15.02 mg/dL
Fasting Glucose Change from Baseline, Mean ([2]; Total): -17.64 mg/dL
Fasting Glucose Change from Baseline, Median ([2]; Total): -19.82 mg/dL
Fasting Glucose Difference in LS Mean Change (vs Placebo) ([2]; Total): -20.15 mg/dL
Fasting Glucose, Day 32, Mean ([2]; Insulin Dose < 20 U/day): 125.75 mg/dL
Fasting Glucose, Day 32, Median ([2]; Insulin Dose < 20 U/day): 125.24 mg/dL
Fasting Glucose, Day 32, Mean ([2]; Insulin Dose ≥ 20 U/day): 159.03 mg/dL
Fasting Glucose, Day 32, Median ([2]; Insulin Dose ≥ 20 U/day): 141.91 mg/dL
Fasting Glucose, Day 32, Mean ([2]; Total): 146.77 mg/dL
Fasting Glucose, Day 32, Median ([2]; Total): 139.66 mg/dL
change in eGFR from baseline to end of dosing vs placebo [3]: No statistically significant difference
change in eGFR from baseline to end of dosing vs placebo ([3]; listed as cotadutide): no significant changes
deaths ([4]; diabetic ketoacidosis and cholecystitis, deemed related): one death
Serious adverse events (SAEs) vs placebo ([4]; in vivo): balanced
TEAE that led to withdrawal ([4]; in vivo): two subjects
incidence of overall TEAEs and product-related TEAEs vs placebo ([4]; in vivo): higher
most frequently reported TEAEs (preferred term) ([4]; in vivo): nausea, vomiting, diarrhea, and dyspepsia
nausea, frequency ([4]; in vivo): 33%
treatment-related AEs, frequency ([4]; in vivo): 71%
vomiting, frequency ([4]; in vivo): 24%
changes in total body water volume, intracellular fluid volume, or extracellular fluid volume vs placebo [5]: no clinically meaningful differences
